Laboratory results from patent US10864238B2, “Composition containing Poria cocos peel extract for treating neurodegenerative disorders” (NeuroBo Pharmaceuticals, Inc., priority 2014, dated 2020).

Assays:
human Tau [pS199] = test: Phosphorylated tau in neuronal cell line (ELISA); assay type: cell-based; conditions: 10 ug/ml; SH-SY5Y; FIG. 11
Description: Phosphorylated tau levels were measured in order to confirm the inhibitory effect of Poria cocos peel extracts on tau hyper-phosphorylation. SH-SY5Y cells (1×10^6 cells/well) were seeded in 6-well culture plates and cultured in DMEM/F12 (Dulbecco's modified Eagle's medium) medium containing 10% FBS (fetal bovine serum) for 48 hours. After 5 days of differentiation using DMEM/F12 medium containing 10 μM retinoic acid and 3% FBS, after 6 hours of treatment with the Poria cocos peel extracts (10 or 100 ug/mL), Aβ42 was treated and cultured for a total of 48 hours. After cell lysis using RIPA buffer, the protein content was quantitated with BCA reagent purchased from Pierce. Phosphorylated tau was measured using human Tau [pS199] enzyme-linked immunosorbent assay (ELISA) KIT purchased from Invitrogen.

beta-nerve growth factor = test: NGF level measurement in nerve cell line (ELISA); assay type: cell-based, human; conditions: 10 ug/mL; SH-SY5Y; FIG. 12
Description: NGF levels were measured in order to determine the mechanism of cognitive improvement of the Poria cocos peel extracts. SH-SY5Y cells (1×10^6 cells/well) were inoculated on 6-well culture plates and cultured in DMEM/F12 (Dulbecco's modified Eagle's medium) medium containing 10% fetal bovine serum for 48 hours. After 5 days of differentiation using DMEM/F12 medium containing 10 μM retinoic acid and 3% FBS, the cells were treated with Poria cocos peel extracts (10 or 100 ug/ml). Cells were lysed using RIPA buffer, and protein content was quantitated with BCA reagent purchased from Pierce. NGF levels were measured using a beta-nerve growth factor human enzyme-linked immunosorbent assay (ELISA) KIT purchased from Abcam.

**Q.** For `COc1cc2c(cc1OC)C(=O)C(CC1CCN(Cc3ccccc3)CC1)C2` (centres unmarked) [Donepezil], which “tau phosphorylation induced by Aβ42” value (human Tau [pS199]) is on record?
**A.** The value was “did not show the inhibitory effect on tau phosphorylation”.

**Q.** And the NGF production (beta-nerve growth factor)?
**A.** The NGF production was “did not show NGF-related efficacy”.
